One data set relates to male LDLR−/− mice. The data set can be described thus: Compound effects in diet-induced hyperlipidemic LDLR-/- mice (plasma triglyceride and cholesterol). Type of data set: in vivo, mouse. The method, then: Young adult male mice (˜8 weeks of age) were purchased from conventional vendors and group housed (3-4/cage) with ad libitum access to chow and water, in a temperature- and light-controlled vivarium (lights on at 06:00 hours, off at 18:00 hours). Compounds were administered daily by oral gavage in the morning (˜08:00 hrs), in a final volume of 0.1 ml/mouse, with the first dose of compound delivered on study day 0. Compounds were solubilized by gentle mixing in PEG400:Tween80 (4:1) for at least several hours and usually overnight prior to initiation of dosing. When necessary, solutions were sonicated briefly to ensure complete compound solubilization.
Blood samples (˜0.15 ml/mouse) were obtained from the retro-orbital sinus of non-fasted isoflurane-anesthetized mice, 3 hours after drug dosing. Blood samples were collected into heparin-coated tubes, and plasma was recovered following centrifugation. Plasma total cholesterol and triglyceride levels were determined by […] enzymatic commercially available assays that were adapted to 96-well plate formats. Plasma HDL cholesterol (HDL-C) was determined by removing non-HDL-C from the plasma with a precipitating reagent, and then determining the plasma cholesterol levels in the remaining HDL-C fraction. Plasma triglycerides concentrations, determined from a blood sample obtained in the 24 hours prior to the first dose, were used to group the mice such that the pre-study triglyceride levels between groups were equivalent prior to initiation of the dosing regimen.
Male LDLR^−/− mice (JAX Mice, Bar Harbor, Me.) consumed a purified “Western” diet (˜21% fat, 0.02% cholesterol w/w) ad libitum, for two weeks prior to and during treatment with Compound C daily by oral gavage at a dose of 10 mg/kg/day for 7 days (n=9-10/group).
In a separate study utilizing the same mouse model ([…]) subjected to the dietary lead-in for 8 weeks, LDLR^−/− mice were treated with Compound B at a dose of 10 mg/kg/day for 6 weeks.

Another data set in a line: physchem. Conditions: for solubility kinetic at 1.5 h: pH 7.4, aqueous buffer, kinetic from dmso stock.
Data set [1] deals with T1, human farnesoid X receptor (Homo sapiens, UniProt Q96RI1).
T1 construct: CMX-farnesoid X receptor (full length human farnesoid X receptor); expressed in transfected cells; host or cells: CV-1 African Green Monkey Kidney cells
T1 sequence (Q96RI1 1-472 isoform Q96RI1-2): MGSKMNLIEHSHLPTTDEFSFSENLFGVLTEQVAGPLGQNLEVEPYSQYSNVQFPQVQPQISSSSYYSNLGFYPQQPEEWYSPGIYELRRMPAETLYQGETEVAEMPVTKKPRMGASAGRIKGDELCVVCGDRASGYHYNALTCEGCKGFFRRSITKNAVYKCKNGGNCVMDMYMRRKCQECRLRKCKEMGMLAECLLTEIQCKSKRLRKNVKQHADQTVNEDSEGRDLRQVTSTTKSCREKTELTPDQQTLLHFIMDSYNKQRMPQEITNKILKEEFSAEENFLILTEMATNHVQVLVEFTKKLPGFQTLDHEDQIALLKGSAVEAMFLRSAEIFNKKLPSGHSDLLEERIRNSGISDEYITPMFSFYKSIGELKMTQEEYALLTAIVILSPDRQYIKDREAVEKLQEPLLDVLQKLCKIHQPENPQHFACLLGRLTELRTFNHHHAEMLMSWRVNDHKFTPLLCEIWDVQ
T1 sequence (P19793 1-462 partner): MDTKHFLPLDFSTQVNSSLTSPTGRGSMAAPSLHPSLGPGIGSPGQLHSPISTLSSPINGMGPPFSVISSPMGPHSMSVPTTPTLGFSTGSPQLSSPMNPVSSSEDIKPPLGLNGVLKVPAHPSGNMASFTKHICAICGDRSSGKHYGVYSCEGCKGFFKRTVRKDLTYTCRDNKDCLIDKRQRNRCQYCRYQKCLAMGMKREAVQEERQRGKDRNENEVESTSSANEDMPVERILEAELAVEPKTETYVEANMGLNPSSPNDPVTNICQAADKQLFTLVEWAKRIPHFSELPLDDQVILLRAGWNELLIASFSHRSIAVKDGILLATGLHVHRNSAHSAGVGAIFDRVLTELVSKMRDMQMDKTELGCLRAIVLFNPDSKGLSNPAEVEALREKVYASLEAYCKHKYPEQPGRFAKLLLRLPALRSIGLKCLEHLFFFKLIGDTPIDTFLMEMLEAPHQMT
As to the kind of experiment: FXR in vitro assays (farnesoid X receptor/ECREx7 co-transfection assay, TR-FRET assay), Table I. Type of data set: cell-based. As to conditions: for pEC50: agonist activity, one or more of the in vitro assays, read-out: EC50; for Emax: read-out: % Efficacy. The procedure, abridged: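 CV-1 monkey kidney cells transfected for an FXR/ECREx7 luciferase co-transfection reporter; luciferase read 18-20 h later in lysates. 8-point dose-response at ½-log spacing, 4 wells per point; EC50/IC50 from four-parameter Hill fit, averaged over at least 3 independent experiments.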
Background: Time-resolved FRET reads energy transfer from a long-lived donor to a nearby acceptor.

The test system of data set [2] is patients with hypertriglyceridemia. Conditions: cited from earlier work.
[3] abbreviates: Western diet 8 weeks lead-in, 10 mg/kg/day for 6 weeks.

pEC50: −log10 of the molar value. Converted amounts (≈) assume the structure as drawn. A value given as a limit tells only on which side of the number the result lay.

We go through 15 compounds from patent US20090203577A1 (EXELIXIS, INC., priority 2005, published 2009).

Turning to `CC(C)OC(=O)C1=CN(C(=O)c2ccc(F)c(F)c2)CC(C)(C)c2c1[nH]c1ccccc21` [Compound C, isopropyl 3-(3,4-difluorobenzoyl)-1,1-dimethyl-1,2,3,6-tetrahydroazepino[4,5-b]indole-5-carboxylate], the plasma triglyceride concentrations entry with male LDLR−/− mice (Western diet 2 weeks lead-in, 10 mg/kg/day oral gavage, study day 7) was “reduced plasma triglyceride concentrations to the level observed prior to introduction of the high-fat chow”. In the data set on male LDLR−/− mice (Western diet 2 weeks lead-in, 10 mg/kg/day oral gavage, study day 7, p<0.05 vs. vehicle), the “lowering of plasma total cholesterol levels” value was around 40%. In addition, in the data set with male LDLR−/− mice (daily dosing throughout the 6 weeks of study, continued Western diet), the plasma lipid profiles entry is reported as “sustained normalization”.
Regarding `CCOC(=O)C1=CN(C(=O)c2ccc(F)c(F)c2)CC(C)(C)c2c1[nH]c1ccccc21` [Compound B, Ethyl 3-(3,4-difluorobenzoyl)-1,1-dimethyl-1,2,3,6-tetrahydro-azepino[4,5-b]indole-5-carboxylate], in the data set with male LDLR−/− mice (setting [3]), the plasma cholesterol concentrations result is on record as “lowered” and the plasma triglyceride concentrations result is listed as “lowered”.
Turning to `CC(C)OC(=O)C1=CN(C(=O)c2cccc(F)c2)CC(C)(C)c2c1[nH]c1ccccc21` [Example 72, 1-methylethyl 3-[(3-fluorophenyl)carbonyl]-1,1-dimethyl-1,2,3,6-tetrahydroazepino[4,5-b]indole-5-carboxylate], the kinetic solubility at 1.5 h in the data set “physchem” was in the range of 1 to 10 µM (≈ 0.42 to 4.2 µg/mL). Moreover, in data set [1], the pEC50 was 8.00 to 9.00 and the Emax was above 100%.
`CCC(=O)N1C=C(C(=O)OC(C)C)c2[nH]c3ccccc3c2C(C)(C)C1` [Example 19] displayed a solubility (kinetic) at 1.5 h in the data set “physchem” above 10 µM. Besides, in data set [1], the negative-log EC50 (pEC50) was 6.00 to 7.00 and the Emax is above 100%.
Consider `C[C@H](CCC(=O)O)[C@H]1CC[C@H]2[C@@H]3[C@H](O)C[C@@H]4C[C@H](O)CC[C@]4(C)[C@H]3CC[C@]12C` [CDCA, chenodeoxycholic acid], for which the plasma triglyceride levels result in data set [2] is recorded as “significantly lowers”.
As to “1-methyethyl 1,1-dimethyl- 3-({4-[4-(trifluoromethyl)- 1H-pyrazol-1- yl]phenyl}carbonyl)-1,2,3,6- tetrahydroazepino[4,5- b]indole-5-carboxylate [Example 158]”, the “Kinetic Solubility μM” value in the data set “physchem” (500 μM assay solution in PBS, pH7.4 from DMSO stock, filtration, HPLC-UV) is given as “C (C=0.1-1.0 μM)”. In data set [1], the “% Efficacy” value is “A (key: A=>100%; B=80-100%; C=60-80%; D=40-60%; E=<40%)”.
In the case of `CC(C)OC(=O)C1=CN(C(=O)c2ccc3c(c2)OCO3)CC(C)(C)c2c1[nH]c1ccccc21` [Example 80, 1-methylethyl 3-(1,3-benzodioxol-5-ylcarbonyl)-1,1-dimethyl-1,2,3,6-tetrahydroazepino[4,5-b]indole-5-carboxylate], in the data set “physchem”, the solubility (kinetic) at 1.5 h fell in the range of 1 to 10 µM (≈ 0.447 to 4.47 µg/mL). For the same compound, in data set [1], the negative-log EC50 (pEC50) was 7.00 to 8.00 and the Emax was above 100%.
Compound `CC(CO)OC(=O)C1=CN(C(=O)c2ccc(F)c(F)c2)CC(C)(C)c2c1[nH]c1ccccc21` (centres unmarked) [Example 193, 2-hydroxy-1-methylethyl 3-[(3,4-difluorophenyl)carbonyl]-1,1-dimethyl-1,2,3,6-tetrahydroazepino[4,5-b]indole-5-carboxylate] returned a kinetic solubility at 1.5 h in the data set “physchem” of 1 to 10 µM (≈ 0.454 to 4.54 µg/mL). In addition, in data set [1], the negative logarithm of the EC50 (pEC50) was 7.00 to 8.00 and the Emax is above 100%.
The like results for `CC(=O)N1CCCN(Cc2cccc(C(=O)N3C=C(C(=O)OC(C)C)c4[nH]c5ccccc5c4C(C)(C)C3)c2)CC1` [Example 177, 1-methylethyl 3-({3-[(4-acetyl-1,4-diazepan-1-yl)methyl]phenyl}carbonyl)-1,1-dimethyl-1,2,3,6-tetrahydroazepino[4,5-b]indole-5-carboxylate] were, in that order, 1 to 10 µM (≈ 0.557 to 5.57 µg/mL), 6.00 to 7.00 and above 100%.
As for `CC(C)OC(=O)C1=CN(C(=O)N2CCC(N3CCN(C)CC3)CC2)CC(C)(C)c2c1[nH]c1ccccc21` [Example 41, 1-methylethyl 1,1-dimethyl-3{[4-(4-methylpiperazin-1-yl)piperidin-1-yl]carbonyl}-1,2,3,6-tetrahydroazepino [4,5-b]indole-5-carboxylate], the kinetic solubility at 1.5 h in the data set “physchem” was above 10 µM. For the same compound, in data set [1], the negative-log EC50 (pEC50) was 5.00 to 6.00 and the Emax was 40 to 60%.
For `CC(C)OC(=O)C1=CN(C(=O)c2ccccc2Br)CC(C)(C)c2c1[nH]c1ccccc21` [Example 67, 1-methylethyl 3-[(2-bromophenyl)carbonyl]-1,1-dimethyl-1,2,3,6-tetrahydroazepino[4,5-b]indole-5-carboxylate], in that order: 1 to 10 µM (≈ 0.481 to 4.81 µg/mL), 7.00 to 8.00 and above 100%.
The like results for `CCCNC(=O)N1C=C(C(=O)OC(C)C)c2[nH]c3ccccc3c2C(C)(C)C1` [Example 23, 1-methylethyl 1,1-dimethyl-3-[(propylamino)carbonyl]-1,2,3,6-tetrahydroazepino[4,5-b]indole-5-carboxylate] were, in that order, 1 to 10 µM (≈ 0.383 to 3.83 µg/mL), 6.00 to 7.00 and above 100%.
For `CC(C)OC(=O)C1=CN(C(=O)N2CCN(CC3CCN(C)CC3)CC2)CC(C)(C)c2c1[nH]c1ccccc21` [Example 29, 1-methylethyl 1,1-dimethyl-3-({4-[(1-methylpiperidin-4-yl)methyl]piperazin-1-yl}carbonyl)-1,2,3,6-tetrahydroazepino [4,5-b]indole-5-carboxylate], in that order: above 10 µM, 5.00 to 6.00 and 40 to 60%.
For `Cc1ccc(C(=O)N2C=C(C(=O)OC(C)C)c3[nH]c4ccccc4c3C(C)(C)C2)cc1F` [Example 130, 1-methylethyl 3-[(3-fluoro-4-methylphenyl)carbonyl]-1,1-dimethyl-1,2,3,6-tetrahydroazepino[4,5-b]indole-5-carboxylate], the solubility (kinetic) at 1.5 h in the data set “physchem” lay within 1 to 10 µM (≈ 0.435 to 4.35 µg/mL). Also, in data set [1], the pEC50 is 7.00 to 8.00 and the Emax is above 100%.
For `CC(C)OC(=O)C1=CN(C(=O)N2CCC[C@H](CN3CCOCC3)C2)CC(C)(C)c2c1[nH]c1ccccc21` [Example 57, 1-methylethyl 1,1-dimethyl-3-{[(3R)-3-(morpholin-4-ylmethyl)piperidin-1-yl]carbonyl}-1,2,3,6-tetrahydroazepino [4,5-b]indole-5-carboxylate], in that order: above 10 µM, 5.00 to 6.00 and above 100%.

As a reminder, the kinetic solubility is the concentration staying in solution when a stock, usually in DMSO, is diluted into the medium. Broadly, the pEC50 is the EC50 on a negative log10 scale, so that one unit is a factor of ten.
